Experimental data taken from US20220411480A1, “ANTITUMOR PEPTIDE AND USE THEREOF” (TOAGOSEI CO., LTD, priority 2018, published 2022).
Residues, ends and D or L forms follow the SMILES beside them.

How the values were obtained:
[1] = test system: human non-small cell lung cancer cell lines (H2444); experiment: Antitumor activity evaluation test (2), cell viability by Cell Counting Kit-8 (WST-8); assay type: cell-based; conditions: H2444 versus normal MCF-12F cells
Method: (§1) A2058 cells and MCF-12F cells were cultured and prepared so that the number of cells per well in a 96-well plate was about 5×10^3. An amount of the culture medium in this case was 100 μL per well.
(§2) Next, the 96-well plate was placed in a CO2 incubator and pre-incubated under conditions of 37° C. and 5% CO2 for about 1 day (21 hours to 24 hours).
(§3) Then, peptide-containing test culture mediums for each concentration were prepared so that the concentrations of the sample peptides to be evaluated were 12.5 μM and 25 μM, and supplied to wells (that is, wells after the pre-incubation) in which 90μL of cells to be evaluated were cultured in each well. Then, the 96-well plate was returned to the CO2 incubator and incubated under conditions of 37° C. and 5% CO2 for 48 hours.
(§4) Here, the number of test wells (n) at peptide concentrations in peptide addition test groups was set to 3. Therefore, the value of the result shown in the following table is an average value of the results obtained in three test wells. First, the cell viability (%) was determined as follows. […]
(§5) After the incubation was completed, the cell culture solution to which the reagent was added was collected and the cell viability (%) was evaluated according to a colorimetric method in which an absorbance at a wavelength of 450 nm (value corrected by the absorbance at a wavelength of 650 nm: A450-A650) was measured based on the reduction of the tetrazolium salt. Specifically, a measured value (measured absorbance) of a comparative test group in which the above incubation was performed for 48 hours simply in a culture medium containing no peptide was set as a cell viability of 100%, and the cell viability (%) was calculated from the measured absorbance of each test cell line as a relative value.
(§6) The antitumor activity and antitumor cell selective antitumor activity of Samples 2 and 6 of Test Example 1, with respect to a plurality of types of human-derived cultured tumor cells were evaluated. […]
(§7) Then, the cell viability was calculated in the same processes as in Test Example 2. […]

[2] = as above; assay type: cell-based, human; conditions: peptide 25 μM, 48 hours, relative to no peptide = 100%; read-out: cell viability of H2444 cells
Method: as §1, §2, §3, §4, §5, §6, §7

[3] = test system: human melanoma (A2058) cell lines; experiment: Antitumor activity evaluation test (1), cell viability by Cell Counting Kit-8 (WST-8); assay type: cell-based; conditions: 48 hours, A2058 versus normal MCF-12F cells
Method: (§8) The antitumor activity of the sample peptides synthesized in Test Example 1 was evaluated using human-derived cultured tumor cells as targets.
(§9) Specifically, currently commercially available human melanoma (A2058) cell lines were used as test tumor cells. In addition, a normal human mammary epithelial cell culture line (MCF-12F) was used for comparison. Here, culture solutions of respective cells are as follows. • (1) A2058 cells:
(§10) DMEM culture medium including 2 mM L-glutamine, 0.1 mM of non-essential amino acids, 50 units/mL of penicillin, 50 μg/mL of streptomycin, and 10% fetal bovine serum (FBS) (product, commercially available from Wako Pure Chemical Industries, Ltd.). • (2) MCF-12F cells:
(§11) DMEM/F12 culture medium including 20 ng/mL of recombinant EGF, 10 μg/mL of insulin, 0.5 μg/mL of hydrocortisone, and 10% FBS (product, commercially available from Wako Pure Chemical Industries, Ltd.).
as §1, §2, §3
(§12) Here, the number of test wells (n) at peptide concentrations in peptide addition test groups was set to 3. Therefore, the value of the result shown in the following table is an average value of the results obtained in three test wells. First, the cell viability (%) was determined as follows.
(§13) After the incubation for 48 hours was completed, the culture medium in each well was replaced with 100 μL of a fresh culture medium containing no peptide, and additionally, 10μL of a cell proliferation measurement reagent “Cell Counting Kit-8” (product, commercially available from Dojindo Molecular Technologies, Inc.) containing a “water-soluble tetrazolium salt (WST-8)” as a coloring reagent was added to each well. Then, the 96-well plate was returned to the CO2 incubator and incubated under conditions of 37° C., and 5% CO2 for 1.5 hours to 2 hours.
as §5
(§14) Specifically, a value (value multiplied by 100 for convenience) obtained by dividing the cell viability of target tumor cells (here, A2058 cells) when the sample peptides were added at a concentration of 12.5 μM or 25 μM measured as described above by the cell viability of comparative normal cells (here, MCF-12F cells) measured under the same conditions, that is,
(§15) {(A2058 cell viability)/(MCF-12F cell viability)}×100 was calculated as a specific cell viability of the tumor cells, and the test tumor cells selective antitumor activity with respect to normal cells was evaluated using such a specific cell viability as an index.

[4] = as above; assay type: cell-based, human; conditions: peptide 25 μM, 48 hours, relative to culture medium containing no peptide = 100%; read-out: A2058 cell viability (survival rate)
Method: as §8, §9, §10, §11, §1, §2, §3, §12, §13, §5, §14, §15

[5] = test system: human colorectal cancer cell lines (SW480); experiment: Antitumor activity evaluation test (2), cell viability by Cell Counting Kit-8 (WST-8); assay type: cell-based; conditions: SW480 versus normal MCF-12F cells
Method: as §1, §2, §3, §12, §13, §5
(§16) The antitumor activity and antitumor cell selective antitumor activity of Samples 2 and 6 of Test Example 1, with respect to a plurality of types of human-derived cultured tumor cells were evaluated.
(§17) Specifically, currently commercially available human melanoma cell lines (SK-MELS), human non-small cell lung cancer cell lines (H2444), and human colorectal cancer cell lines (SW480) were used as test tumor cells. In addition, the above MCF-12F cells were used as normal cells for comparison.
(§18) Leibovitz's L-15 culture medium including 100 unit/mL of penicillin, 100 μg/mL of streptomycin, and 10% FBS (product, commercially available from Gibco)
(§19) Here, in the evaluation test using SW480 cell lines, the cells were cultured under conditions of 37° C. and without CO2.
(§20) Then, the cell viability was calculated in the same processes as in Test Example 2. Here, in this test example, the antitumor activity of Sample 6 with respect to SK-MELS cells, the antitumor activity of Sample 2 with respect to H2444 cells, and the antitumor activity of Sample 2 and Sample 6 with respect to SW480 cells were evaluated.
(§21) Next, a specific cell viability was calculated in the same processes as in Test Example 2. That is,
(§22) {(Test tumor cell survival rate)/(MCF-12F cell viability)}×100 was calculated as a specific cell viability of the tumor cells, and a test tumor cells selective antitumor activity with respect to normal cells was evaluated using such a specific cell viability as an index. […]

[6] = as above; assay type: cell-based, human; conditions: peptide 25 μM, 48 hours, 37° C. without CO2, relative to no peptide = 100%; read-out: cell viability of SW480 cells
Method: as §1, §2, §3, §12, §13, §5, §16, §17, §18, §19, §20, §21, §22

[7] = test system: human melanoma cell lines (SK-MELS); experiment: as above; assay type: cell-based; conditions: SK-MEL5 versus normal MCF-12F cells
Method: as §1, §2, §3, §4, §5, §6, §7

[8] = as above; assay type: cell-based, human; conditions: peptide 25 μM, 48 hours, relative to no peptide = 100%; read-out: cell viability of SK-MELS cells
Method: as §1, §2, §3, §4, §5, §6, §7

CC[C@H](C)[C@H](NC(=O)[C@H](CC(N)=O)NC(=O)[C@@H](NC(=O)[C@@H](N)CC(C)C)C(C)C)C(=O)N[C@H](C(=O)N[C@@H](CC(C)C)C(=O)N[C@@H](CO)C(=O)N[C@@H](CC(=O)O)C(=O)N[C@@H](CC(C)C)C(=O)N[C@@H](CC(C)C)C(=O)N[C@H](C(=O)NCC(=O)N[C@@H](C)C(=O)N[C@@H](C)C(=O)N[C@@H](Cc1ccc(O)cc1)C(=O)N[C@@H](CC(C)C)C(=O)N[C@@H](C)C(=O)N[C@@H](CC(N)=O)C(=O)N[C@H](C(=O)N[C@@H](CC(C)C)C(=O)N[C@@H](CC(C)C)C(=O)N[C@@H](CCCNC(=N)N)C(=O)N[C@@H](CCCCN)C(=O)N[C@@H](CCCCN)C(=O)N[C@@H](CCCNC(=N)N)C(=O)N[C@@H](CCCNC(=N)N)C(=O)N[C@@H](CCC(N)=O)C(=O)N[C@@H](CCCNC(=N)N)C(=O)N[C@@H](CCCNC(=N)N)C(=O)N[C@@H](CCCNC(=N)N)C(N)=O)C(C)C)[C@@H](C)O)[C@@H](C)O [Sample 2] (H-LVNITLSDLLTGAAYLANVLLRKKRRQRRR-NH2; N-terminus assumed)
Specific cell viability {(Test tumor cell survival rate)/(MCF-12F cell viability)}×100 ([1]; peptide 12.5 μM): 0.22
Specific cell viability {(Test tumor cell survival rate)/(MCF-12F cell viability)}×100 ([1]; peptide 25 μM): 0.41
viability [2]: 2.1%
Specific cell viability {(A2058 cell viability)/(MCF-12F cell viability)}×100 ([3]; peptide 12.5 μM): 4.79
Specific cell viability {(A2058 cell viability)/(MCF-12F cell viability)}×100 ([3]; peptide 25 μM): 1.96
viability [4]: 0.1%
Specific cell viability {(Test tumor cell survival rate)/(MCF-12F cell viability)}×100 ([5]; peptide 12.5 μM): 2.98
Specific cell viability {(Test tumor cell survival rate)/(MCF-12F cell viability)}×100 ([5]; peptide 25 μM): 0.45
viability [6]: 2.3%

CSCC[C@H](NC(=O)[C@H](C)NC(=O)[C@@H](N)CC(C)C)C(=O)N[C@@H](C)C(=O)N[C@@H](C)C(=O)N[C@@H](C)C(=O)N[C@@H](C)C(=O)N[C@@H](Cc1c[nH]c2ccccc12)C(=O)NCC(=O)N[C@H](C(=O)N[C@@H](CO)C(=O)N[C@@H](CC(C)C)C(=O)N[C@@H](CC(C)C)C(=O)N[C@@H](CC(C)C)C(=O)NCC(=O)N[C@@H](CC(C)C)C(=O)N[C@@H](CC(C)C)C(=O)N1CCC[C@H]1C(=O)N[C@@H](C)C(=O)N[C@@H](CC(C)C)C(=O)NCC(=O)N[C@@H](CCCNC(=N)N)C(=O)N[C@@H](CCCCN)C(=O)N[C@@H](CCCCN)C(=O)N[C@@H](CCCNC(=N)N)C(=O)N[C@@H](CCCNC(=N)N)C(=O)N[C@@H](CCC(N)=O)C(=O)N[C@@H](CCCNC(=N)N)C(=O)N[C@@H](CCCNC(=N)N)C(=O)N[C@@H](CCCNC(=N)N)C(N)=O)C(C)C [Sample 6] (H-LAMAAAAWGVSLLLGLLPALGRKKRRQRRR-NH2; N-terminus assumed)
Specific cell viability {(Test tumor cell survival rate)/(MCF-12F cell viability)}×100 ([7]; peptide 12.5 μM): 0.25
Specific cell viability {(Test tumor cell survival rate)/(MCF-12F cell viability)}×100 ([7]; peptide 25 μM): 0.22
viability [8]: 1.9%
Specific cell viability {(A2058 cell viability)/(MCF-12F cell viability)}×100 ([3]; peptide 12.5 μM): 40
Specific cell viability {(A2058 cell viability)/(MCF-12F cell viability)}×100 ([3]; peptide 25 μM): 5.88
viability [4]: 0.5%
Specific cell viability {(Test tumor cell survival rate)/(MCF-12F cell viability)}×100 ([5]; peptide 12.5 μM): 1.14
Specific cell viability {(Test tumor cell survival rate)/(MCF-12F cell viability)}×100 ([5]; peptide 25 μM): 2.38
viability [6]: 20.2%
